US20260055083A1, “APOL1 INHIBITORS AND METHODS OF USE” (Maze Therapeutics, Inc., priority 2022, published 2026)

Columns and labels:
APOL1 G2 [1] = target: T1, APOL1 G2 (Homo sapiens, UniProt O14791, DEL388-389); experiment: APOL1 G2 FLIPR calcium influx assay (HEK T-REx/GCaMP6f/APOL1 G2 K6.3 cells); assay type: cell-based; settings: HEK293 clone expressing GCaMP6f, doxycycline-induced APOL1 G2; prevention of calcium influx; geometric mean of at least 2 assay runs
T1 construct: expressed in transfected cells; host or cells: HEK293/T-REx APOL1 G2 clone #2, doxycycline-inducible
T1 sequence (O14791 with tags, fused parts or gaps DEL388-389): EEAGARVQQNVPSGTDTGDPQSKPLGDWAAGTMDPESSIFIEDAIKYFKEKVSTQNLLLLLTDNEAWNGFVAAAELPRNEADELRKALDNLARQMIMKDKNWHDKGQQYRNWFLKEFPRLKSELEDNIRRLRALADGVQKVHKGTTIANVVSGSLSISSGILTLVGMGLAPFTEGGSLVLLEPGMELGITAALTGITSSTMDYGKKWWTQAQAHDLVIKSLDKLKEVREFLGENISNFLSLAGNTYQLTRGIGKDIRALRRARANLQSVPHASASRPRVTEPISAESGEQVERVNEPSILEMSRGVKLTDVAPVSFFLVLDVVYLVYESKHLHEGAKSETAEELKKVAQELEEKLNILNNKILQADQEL
Experimental: A HEK293 clonal cell line was generated to stably express GCaMP6f, a genetically encoded calcium indicator, and inducibly express APOL1 G2 (HEK T-REx/GCaMP6f/APOL1 G2 K6.3). Cells were maintained in the following standard complete medium: DMEM with 4.5 g/L glucose and sodium pyruvate (BioWhittaker, Lonza, BE12-614F), supplemented with 10% FBS Performance Plus (Gibco, 16000044), 1% penicillin-streptomycin (BioWhittaker, DE17-602E), 2 mM ultraglutamine-1 (BioWhittaker cat. BE 17-605/U1), 50 μg/mL Zeocin (InvivoGen, ant-zn), 2.5 μg/mL Blasticidin (InvivoGen, ant-bl-5), and 25 μg/mL Hygromycin (InvivoGen, ant-hg). Standard propagation conditions consisted of plating 9×10^6, 4×10^6, 2×10^6 cells in a T225 flasks to be processed after 2, 3, or 4 days, respectively.
A source plate was generated containing 20 serially diluted compounds in DMSO (duplicate 8-point dose response). Next, 0.8 μL of compounds were transferred from the source plate to a destination plate prefilled with 79.2 μL of Ca^2+ free Tyrode's buffer (130 mM NaCl, 5 mM KCl, 1 mM MgCl2, 5 mM NaHCO3, 20 mM HEPES at pH 7.4). The destination plate was placed on a plate shaker (5 seconds at 2000 rpm) to mix. […] All transfer and mixing steps were conducted with an CyBi®-Well dispenser.
Cells were split by gently washing with DPBS (Euroclone, ECB4004L), followed by a 5-minute incubation (humidified, 37° C. with 5% CO2) with trypsin-EDTA solution (Euroclone, ECB3052D). Detached cells were diluted with standard complete medium without selective agents, counted, and plated in a 384 MTP microplate (GR4332CPL, Twin Helix) (10,000 cells/well in 25 μl/well) using a MATRIX WellMate dispenser. Plates were placed into a humidified incubator (37° C. with 5% CO2) overnight. The following day, 20 μL of doxycycline (Sigma, D9891) at 20 ng/mL in standard complete medium was added to cells with a CyBi®Drop dispenser to induce APOL1 G2 expression. After a 6-hour incubation (humidified, 37° C. with 5% CO2), cells were washed 3 times with Ca^2+ free Tyrode's Buffer (130 mM NaCl, 5 mM KCl, 1 mM MgCl2, 5 mM NaHCO3, 20 mM HEPES at pH 7.4) using a BIOTEK Microplate washer, such that 10 μL of buffer remained in each well after the final wash. Assay plates were then stored at room temperature for 10 minutes. Next, 10 μL of diluted compounds were transferred to the assay plate from the 2× compound plate using a CyBi®-Well dispenser. Compound incubation was then carried out at room temperature for 10 minutes. The assay plate was transferred to the […] and 20 μL of 10 mM Ca^2+ (final concentration=5 mM) Tyrode's buffer was injected.
Table B1 below summarizes the data from this experiment. Unless otherwise specified, AC50 and values are reported as the geometric mean of at least 2 assay runs on separate days. Each run represents the average of a technical replicate, where each compound was assayed twice in the same plate. A superscript t symbol indicates a value from the average of a technical replicate from a single assay run, where each compound was assayed twice in the same plate.
The AC50 values in Table B1 below reflect the compound's ability to prevent calcium influx by inhibiting APOL1. […] Compounds in Table B1 are referred to by the corresponding Compound Number in Table 1, which is also referred to in the synthetic examples. When one or more of the numbered compounds are identified by stereochemistry (for example, (R)- or (S)-), the specific stereoisomer for which data is provided in Table B1 may be identified by the elution order of such compound as described in the synthetic examples. To illustrate, Compound 2 is the first-eluting enantiomer of step 4 of Example 1 and Compound 3 is the second-eluting enantiomer of step 4 of Example 1. Further, by way of illustration, Compound 27 is the first-eluting enantiomeric mixture in step 4 of Example 7 and Compound 28 is the second-eluting enantiomeric mixture in step 4 of Example 7. […]

APOL1 G2 [2] = target: T1, APOL1 G2; experiment: APOL1 G2 HEK293 rescue of cell death caused by overexpression of APOL1 (CellTiter-Glo); assay type: cell-based; settings: HEK293/T-REx APOL1 G2 clone #2, doxycycline induction, 17 hours, CellTiter-Glo luminescence; reversal of cell death; geometric mean of at least 2 assay runs
Experimental: A HEK293 clonal cell line overexpressing APOL1 G2 (HEK293/T-REx APOL1 G2/clone #2) was maintained in 1×DMEM-GlutaMax (Gibco, 10569-010) media with 10% tetracycline-free FBS (Takara Bio USA, 631101), 5 μg/mL Blasticidin (Gibco, A1113903), and 100 μg/mL Zeocin (Invitrogen, R25001) in T75 flasks. In preparation for the assay, this media was aspirated and 2 mL of prewarmed TrypLE Express (Gibco, 12605-010) was added to a flask to detach cells. The flask was then incubated (humidified, 37° C. with 5% CO2) for 3-5 minutes. Afterwards, 8 mL of prewarmed cell assay media (1×DMEM-GlutaMax media with 10% tetracycline-free FBS) was added to the trypsinized cells. The suspension was gently mixed, and cells were counted using a Countess Cell Counting Chamber (Invitrogen). The suspension was diluted using cell assay media to generate a working stock solution (166,667 cells/mL). Using a MultiDrop Combi (Thermo Electron Corp), 30 μL (final cell density=5,000 cells/well) of the working stock solution was dispensed into each well of white 384-well assay ready plates (Nunc™, 164610) containing 6 ng/mL doxycycline, to induce APOL1 expression, and compound. All compounds were plated in a duplicate 8-point dilution series that consisted of 3-fold stepwise dilutions (0.5% DMSO final). Assay plates were incubated (humidified, 37° C. with 5% CO2) for 17 hours. After the incubation, the plates were equilibrated at room temperature for 1 hour. Next, 15 μl of CellTiter-Glo® reagent (Promega, G7570) was added to each well using a MultiDrop Combi. Plates were placed on an orbital shaker (500 rpm) for 5 minutes to induce cell lysis and then incubated at room temperature for 10 minutes. Luminescence was measured on an Envision plate reader. Collaborative Drug Discovery software was utilized for graphing data. Plots were generated using a four parameter logistic curve fit.
Table B2 below provides the results from this experiment. Unless otherwise specified, EC50 values are reported as the geometric mean of at least 2 assay runs on separate days. Each run represents the average of a technical replicate, where each compound was assayed twice in the same plate. A superscript t symbol indicates a value from the average of a technical replicate from a single assay run, where each compound was assayed twice in the same plate. Compounds in Table B2 are referred to by the corresponding Compound Number in Table 1, which is also referred to in the synthetic examples. When one or more of the numbered compounds are identified by stereochemistry (for example, (R)- or (S)-), the specific stereoisomer for which data is provided in Table B2 may be identified by the elution order of such compound as described in the synthetic examples. To illustrate, Compound 2 is the first-eluting enantiomer of step 4 of Example 1 and Compound 3 is the second-eluting enantiomer of step 4 of Example 1. Further, by way of illustration, Compound 27 is the first-eluting enantiomeric mixture in step 4 of Example 7 and Compound 28 is the second-eluting enantiomeric mixture in step 4 of Example 7. Then, Compound 27 is separated into Compound 29 (the first-eluting enantiomer) and Compound 30 (the second-eluting enantiomer) in Example 8, and Compound 28 is separated into Compound 31 (the first-eluting enantiomer) and Compound 32 (the second-eluting enantiomer) in Example 8. Absolute stereochemistry of such compounds may be identified by methods known in the art.
Rescue EC50 values reported in Table B2 below represent the half-maximal effective concentration for reversal of cell death caused by overexpression of APOL1.

SMILES	AC50 (APOL1 G2 [1]) [nM]	EC50 (APOL1 G2 [2]) [nM]
C[C@@H]1C[C@H](COc2ccc(S(=O)(=O)CCS(C)(=O)=O)cc2)CN1C1CCc2ccc(C#N)cc2C1 (single isomer, unassigned) [Compound 31]	773	234
C[C@@H]1C[C@H](COc2ccc(S(=O)(=O)CCS(C)(=O)=O)cc2)CN1C1CCc2ccc(C#N)cc2C1 (single isomer, unassigned) [Compound 32]	769	353
C[C@@H]1C[C@H](COc2ccc(S(=O)(=O)CCS(C)(=O)=O)cc2)CN1C1CCc2ccc(C#N)cc2C1 (single isomer, unassigned) [Compound 33, 7S or 7R)-7-[(2R,4S)-4-{[4-(2-methanesulfonylethanesulfonyl)phenoxy]methyl}-2-methylpyrrolidin-1-yl]-5,6,7,8-tetrahydronaphthalene-2-carbonitrile]	662	133
C[C@@H]1C[C@H](COc2ccc(S(=O)(=O)CCCS(C)(=O)=O)cc2)CN1C1CCc2ccc(C#N)cc2C1 (single isomer, unassigned) [Compound 34, (7R or 7S)-7-[(2R,4S)-4-{[4-(3-methanesulfonylpropanesulfonyl)phenoxy]methyl}-2-methylpyrrolidin-1-yl]-5,6,7,8-tetrahydronaphthalene-2-carbonitrile]	951	86.9
C[C@@H]1C[C@H](COc2ccc(S(=O)(=O)CCCS(C)(=O)=O)cc2)CN1C1CCc2ccc(C#N)cc2C1 (single isomer, unassigned) [Compound 35]	948	256
C[C@@H]1C[C@H](COc2ccc(S(=O)(=O)CCCS(C)(=O)=O)cc2)CN1C1CCc2ccc(C#N)cc2C1 (single isomer, unassigned) [Compound 36, (7S or 7R)-7-[(2R,4S)-4-{[4-(3-methanesulfonylpropanesulfonyl)phenoxy]methyl}-2-methylpyrrolidin-1-yl]-5,6,7,8-tetrahydronaphthalene-2-carbonitrile]	714	36.3
CN=S(C)(=O)c1ccc(OC[C@H]2C[C@@H](C)N(C3CCc4ccc(C#N)cc4C3)C2)cc1 (single isomer, unassigned) [Compound 38, (7S or 7R)-7-[(2R,4S)-2-methyl-4-({4-[methyl(methylimino)oxo-λ^6-sulfanyl]phenoxy}methyl)pyrrolidin-1-yl]-5,6,7,8-tetrahydronaphthalene-2-carbonitrile]	590	65

More lines, main results first:

AC50 (APOL1 G2 [1]) [nM]	SMILES	EC50 (APOL1 G2 [2]) [nM]
1180	C[C@@H]1C[C@H](COc2ccc(S(=O)(=O)CCCS(C)(=O)=O)cc2)CN1C1CCc2c(C#N)cccc2C1 (single isomer, unassigned) [Compound 41, (6S or 6R)-6-[(2R,4S)-4-{[4-(3-methanesulfonylpropanesulfonyl)phenoxy]methyl}-2-methylpyrrolidin-1-yl]-5,6,7,8-tetrahydronaphthalene-1-carbonitrile]	62.8
1030	C[C@@H]1C[C@H](COc2ccc(S(=O)(=O)CCCS(C)(=O)=O)cc2)CN1C1CCc2c(C#N)cccc2C1 (single isomer, unassigned) [Compound 42, (6R or 6S)-6-[(2R,4S)-4-{[4-(3-methanesulfonylpropanesulfonyl)phenoxy]methyl}-2-methylpyrrolidin-1-yl]-5,6,7,8-tetrahydronaphthalene-1-carbonitrile]	227
1380	C[C@@H]1C[C@H](COc2ccc(S(=O)(=O)CCCS(C)(=O)=O)cc2)CN1C1CCc2c(C#N)cc(Cl)cc2C1 (single isomer, unassigned) [Compound 44, (6R or 6S)-3-chloro-6-[(2R,4S)-4-{[4-(3-methanesulfonylpropanesulfonyl)phenoxy]methyl}-2-methylpyrrolidin-1-yl]-5,6,7,8-tetrahydronaphthalene-1-carbonitrile]	312
